Measured values: ChEMBL document CHEMBL2086285, “Targeting the liver stage of malaria parasites: a yet unmet goal” (J Med Chem, 2012)

Experiments:
Plasmodium berghei [1] = experiment: Antimalarial activity against Plasmodium berghei ANKA expressing GFP infected in C57BL/6 mouse assessed as reduction of liver infection at 200 mg/kg, po incubated for 6 hrs prior to sporozoite inoculation measured after 40 hrs by qRT PCR; design: scale not given: the % may be the effect or the level left
Plasmodium berghei [2] = experiment: Antimalarial activity against liver stages of Plasmodium berghei; assay type: functional, organism-based
Plasmodium yoelii yoelii [3] = experiment: Antimalarial activity against liver stages of Plasmodium yoelii yoelii in mouse hepatocytes assessed as growth inhibition; assay type: functional, organism-based; conditions: Hepatocyte
Plasmodium cynomolgi = experiment: Antimalarial activity against liver stages of Plasmodium cynomolgi infected in human HepG2 cells assessed as growth inhibition of hepatic parasite after 3 days; assay type: functional, organism-based; conditions: 72 h
Plasmodium falciparum [4] = experiment: Antimalarial activity against liver stages of Plasmodium falciparum NF54 infected in human HepG2-A16 cells expressing CD81 assessed as growth inhibition of hepatic parasite after 5 days by fluorescence microscopy; assay type: functional, organism-based; conditions: NF54, HepG2A16, Liver, 120 h
Plasmodium berghei [5] = experiment: Antimalarial activity against liver stages of Plasmodium berghei assessed as inhibition of cytochrome bc1 complex; assay type: functional, organism-based
Plasmodium berghei [6] = experiment: Antimalarial activity against liver stages of Plasmodium berghei in human HepG2 cells assessed as inhibition of exoerythrocytic development at 1.85 nM administered 3 hrs after sporozite invasion measured after 48 hrs; assay type: functional
Plasmodium falciparum [7] = experiment: Antimalarial activity against liver stages of Plasmodium falciparum NF54 infected in human hepatocytes assessed as growth inhibition of hepatic parasite after 5 days by fluorescence microscopy; assay type: functional, organism-based; conditions: NF54, Hepatocyte, 120 h
Plasmodium berghei [8] = experiment: Antimalarial activity against liver stages of Plasmodium berghei […] infected in human Hepa1-6 cells assessed as reduction in liver parasite load at 10 uM/L incubated for 1 hr prior to sporozoite inoculation measured after 46 to 48 hrs by fluorescence microscope; assay type: functional; design: scale not given: the % may be the effect or the level left
Plasmodium yoelii [9] = experiment: Antimalarial activity against liver stages of Plasmodium yoelii 17XNL infected in Swiss Webster mouse assessed as reduction in liver parasite load at 25 mg/kg, po co-administered with 12.5 mg/kg ritonavir incubated for 6 hrs prior to sporozoite inoculation measured after 18 hrs; assay type: functional; design: scale not given: the % may be the effect or the level left
Plasmodium yoelii [10] = experiment: Antimalarial activity against liver stages of Plasmodium yoelii 17XNL infected in Swiss Webster mouse assessed as reduction in liver parasite load at 100 mg/kg, po co-administered with 50 mg/kg ritonavir incubated for 6 hrs prior to sporozoite inoculation measured after 18 hrs; assay type: functional; design: scale not given: the % may be the effect or the level left
Plasmodium berghei [11] = experiment: Antimalarial activity against Plasmodium berghei infected in […] 1-6 cells assessed as inhibition of host cell sporozoite invasion at 10 uM preincubated for 10 mins measured after 1 hr; assay type: functional; conditions: Hepa1-6
Plasmodium berghei [12] = experiment: Antimalarial activity against liver stages of Plasmodium berghei assessed as human HepG2 cells assessed as inhibition of hepatic parasite growth after invasion of hepatocytes incubated for 48 hrs followed by compound wash out measured after 2 days by RT-PCR analysis; assay type: functional, organism-based
Plasmodium yoelii [13] = experiment: Antimalarial activity against liver stages of Plasmodium yoelii 17XNL expressing GFP infected in human HepG2 cells transfected with CD81 assessed as growth inhibition of hepatic parasite after 40 hrs by flow cytometry; assay type: functional, organism-based
Plasmodium berghei [14] = experiment: Antimalarial activity against liver stages of Plasmodium berghei infected in human HepG2 cells assessed as growth inhibition of hepatic parasite before invasion of hepatocytes incubated for 48 hrs followed by compound wash out measured after 3 days by RT-PCR analysis; assay type: functional, organism-based
Plasmodium yoelii [15] = experiment: Antimalarial activity against Plasmodium yoelii infected in mouse assessed as protection against parasitic infection at 160 mg/kg, po; assay type: functional
Plasmodium yoelii [16] = experiment: Antimalarial activity against Plasmodium yoelii infected in po dosed mouse assessed as minimum dose required to protection against 100% parasitic infection; assay type: functional; conditions: read-out: MED
Plasmodium yoelii yoelii [17] = experiment: Antimalarial activity against liver stages of Plasmodium yoelii yoelii 265 BY infected in mouse after 48 hrs by immunofluorescence assay; assay type: functional, organism-based
Plasmodium falciparum [18] = experiment: Antimalarial activity against liver stages of Plasmodium falciparum NF54 in mouse after 72 to 120 hrs by immunofluorescence assay; assay type: functional, organism-based
Plasmodium berghei [19] = experiment: Antimalarial activity against Plasmodium berghei ANKA infected in C57BL/6 mouse assessed as increase in resistance of mouse to cerebral malaria at 10 mg/kg, ip; assay type: functional; conditions: route intraperitoneal
Plasmodium berghei [20] = experiment: Antimalarial activity against Plasmodium berghei ANKA infected in human Huh7 cells after 24 hrs by qRT-PCR; assay type: functional, organism-based; conditions: Huh-7, 24 h
Plasmodium yoelii [21] = experiment: Antimalarial activity against liver stages of Plasmodium yoelii after 96 hrs; assay type: functional, organism-based
Plasmodium yoelii [22] = experiment: Antimalarial activity against liver stages of Plasmodium yoelii after 96 hrs
Plasmodium yoelii [23] = experiment: Antimalarial activity against Plasmodium yoelii infected in mouse assessed as protection against parasitic infection at 5 mg/kg, po; assay type: functional
Plasmodium yoelii [24] = experiment: Antimalarial activity against liver stages of Plasmodium yoelii infected in mouse assessed as protection against parasitic infection at 50 mg/kg, po after 7 days; assay type: functional
Plasmodium yoelii [25] = experiment: Antimalarial activity against liver stages of Plasmodium yoelii assessed as inhibition of cytochrome bc1 complex; assay type: functional, organism-based

Q: For O=c1c(-c2ccc(O)cc2)coc2cc(O)cc(O)c12 [GENISTEIN], which Activity (Plasmodium berghei [1]) is on record?
A: 64%

Q: And the IC50 (Plasmodium berghei [2])?
A: 20 µM

Q: How did the IC50 (Plasmodium yoelii yoelii [3]) turn out when NCCCCN(CCCN)C(=O)CCCCCCCCCCCOCc1ccc2c(c1)[C@@H]1C[C@]3(CCCCO3)NC3=N[C@]4(CCCCO4)C[C@H]2N31 was run?
A: 9.2 µM

Q: CCc1nc(N)nc(N)c1-c1ccc(Cl)cc1 [PYRIMETHAMINE] was tested. Which IC50 (Plasmodium cynomolgi) did it give?
A: 1.03 µM

Q: What does the source list for O=C1C(O)=C([C@H]2CC[C@H](c3ccc(Cl)cc3)CC2)C(=O)c2ccccc21 [ATOVAQUONE]?
A: IC50 (Plasmodium falciparum [4]): 0.00395 µM; IC50 (Plasmodium berghei [5]): 0.0197 µM; inhibition in vivo at 0.00185 µM (Plasmodium berghei [6]): 50%

Q: For COC1=C2[C@H]3NCC[C@]2(C[C@H](O)[C@@H]1O)c1c(ccc(OC)c1O)[C@H]3O [TAZOPSINE], which IC50 (Plasmodium falciparum [7]) is on record?
A: 4.2 µM

Q: Which results are given for Cc1cccc(C)c1OCC(=O)N[C@@H](Cc1ccccc1)[C@@H](O)C[C@H](Cc1ccccc1)NC(=O)[C@H](C(C)C)N1CCCNC1=O [LOPINAVIR]?
A: Activity (Plasmodium berghei [8]): 38%; Activity (Plasmodium yoelii [9]): 45%; Activity (Plasmodium yoelii [10]): 93%

Q: C=CCS[S+]([O-])CC=C (stereo unspecified) [ALLICIN] was tested. Which inhibition at 10 µM (Plasmodium berghei [11]) did it give?
A: 37%

Q: And the IC50 (Plasmodium berghei [12])?
A: 39.4 µM

Q: What about the IC50 (Plasmodium yoelii [13]) of the same molecule?
A: 40 µM

Q: And the IC50 (Plasmodium berghei [14])?
A: 6.8 µM

Q: With CC(C)COC(=O)/N=C(\NC1=NC(=O)C(=O)N1C(C)C)Nc1ccc(Cl)c(Cl)c1 as the molecule, how does the Activity (Plasmodium yoelii [15]) read?
A: 100%

Q: What about the minimal effective dose (Plasmodium yoelii [16]) of the same molecule?
A: 40 mg/kg

Q: Cc1c(F)c(N2CCNC(C)C2)cc2c1c(=O)c(C(=O)O)cn2C1CC1 (stereo unspecified) [GREPAFLOXACIN] was tested. Which IC50 (Plasmodium yoelii yoelii [17]) did it give?
A: 10 µM

Q: What about the IC50 (Plasmodium falciparum [18]) of the same molecule?
A: 10 µM

Q: For C[C@H](NC(=O)[C@@H](O)c1cc(F)cc(F)c1)C(=O)N[C@@H]1C(=O)N(C)c2ccccc2-c2ccccc21, which Activity (Plasmodium berghei [19]) is on record?
A: 55%

Q: What about the IC50 (Plasmodium berghei [20]) of the same molecule?
A: 80 µM

Q: C[C@@H](CN1CC(=O)NC(=O)C1)N1CC(=O)NC(=O)C1 [DEXRAZOXANE] was tested. Which INH (Plasmodium yoelii [21]) did it give?
A: 50 µM

Q: What about the INH (Plasmodium yoelii [22]) of the same molecule?
A: 50 µM

Q: CC(C)COC(=O)N/C(=N/C(C)C)NC1=NC(=O)C(=O)N1c1ccc(Cl)c(Cl)c1 was tested. Which Activity (Plasmodium yoelii [23]) did it give?
A: 100%

Q: Which Activity (Plasmodium yoelii [24]) does the source give for CCCCCCCCCCOc1cc2c(O)c(C(=O)OCC)cnc2cc1OCC [DECOQUINATE] here?
A: 80%

Q: And the IC50 (Plasmodium yoelii [25])?
A: 0.000177 µM
